Experimental data from US11766413B2 (Nacuity Pharmaceuticals, Inc., priority 2019, dated 2023).
“Also recorded” adds a separate entry of the source.

Tests used:
[1] = Evaluation of retinal penetration of NACA: NACA and NAC levels in plasma, aqueous, vitreous and retina after NACA in drinking water; format: in vivo, mice (rd10/rd10 and wild type C57/BL6); conditions: for concentration at 7 days: mouse, retina, oral, 20 mg/mL in drinking water, 20 mg/mL NACA in drinking water, P28 to P35, estimated dose 60-80 mg/day; for mean levels in the retina compared with plasma / measurability in the retina: animals treated with NACA; for measurability in the retina: N=20 eyes per strain; for measurements in aqueous, vitreous and retina: nearly all measurements, limit of quantification of the assay
Protocol: Animals and Treatments. Mice were treated in accordance with the recommendations of the Association for Research in Vision and Ophthalmology. Litters of homozygous rd10/rd10 mice (B6.CXB1-Pde6brd10/J) and wild type C57/BL6 mice (The Jackson Laboratory, Bar Harbor, Me.) were used for these studies.
Starting on post-natal day 28 (P28), animals were given normal drinking water (n=10 for each strain) or water containing 20 mg/ml NACA (n=10 for each strain).
Analysis of NACA and NAC. Upon sacrifice of the mice on P35, retina, aqueous, vitreous and plasma were collected, weighed, and stabilized as quickly as possible and stored at −80° C. prior to shipment to AIT Bioscience, LLC (Indianapolis, Ind.). The bioanalytical method (BAM.0445.01) for the quantitation of total NAC NACA in K2EDTA was based on derivatization, protein precipitation extraction, and LC-MS/MS instrumental analysis. Any disulfides were reduced to free thiols and subsequently reacted with 2-chloro-1-methylpyridinium iodide (CMPI) to form stable thioethers. The thioether derivatives were detected by LC-MS/MS. Stable label isotope internal standards were used. The method covered a concentration range from 50.0 to 50,000 ng/mL. The thiol moiety of NAC, NACA, and their respective internal standards oxidizes quickly in plasma through formation of disulfides. In order to determine total NAC and total NACA levels in plasma, tris(2-carboxyethyl)phosphine (TCEP) is added during the extraction to reduce disulfide bonds. Ammonium bicarbonate is added to control sample pH near neutral, as TCEP will otherwise acidify the aliquoted samples and hinder derivatization. The free analyte is then derivatized to a stable thioether using 2-chloro-1-methylpyridinium iodide (CMPI). N-acetyl-L-cysteine is used as the reference standard. The assay would not discern the enantiomer, N-acetyl-D-cysteine, if present. A sample volume of 25.0 μL was aliquotted into a 1.2 mL 96-well plate to which was added, in sequence, 25.0 μL internal standard solution (1000 ng/mL NAC-D3 and 1000 ng/mL NACA-D3 in water), 50.0 μL of ammonium bicarbonate (100 mM), 5.0 μL CMPI (60 mM in water), and 5.0 μL of TCEP (60 mM in water). Samples were allowed to react for 30 minutes. To precipitate proteins, 500 μL of acetonitrile was then added to all samples. The plate was covered and the mixtures were shaken and centrifuged. A 50.0 μL aliquot of the supernatant was transferred from each well to a clean plate containing 400 μL of water-acetonitrile (25-75) in each well, and mixed well prior to LC-MS injection.
Samples were analyzed on a Waters Acquity liquid chromatograph interfaced with a Thermo Scientific TSQ Vantage triple quadrupole mass spectrometer with ESI ionization. Each extracted sample was injected (5.0 μL) onto a Waters BEH HILIC column (2.1×100 mm; 1.7 μm) equilibrated at 35° C. Mobile Phase A was ammonium formate (25 mM, pH 3.8). Mobile Phase B was acetonitrile. The LC gradient is tabled below: […]
Peak area ratios from the calibration standard responses were regressed using a (1/concentration^2) linear fit for N-Acetyl-L-Cysteine and N-Acetylcysteine amide.
Evaluation of Retinal Penetration of NACA. To determine retinal levels of NACA/NAC after administration of 20 mg/mL NACA in drinking water for 7 days. This experiment will provide rapid confirmation that NACA and/or NAC penetrate the retina following oral administration. This experiment will also evaluate if the breakdown in the blood-retinal barrier in RP affects the levels of NACA in the retina by comparing animals with RP to wild type mice.
Rd10 and C57BL/6 wild type mice will begin treatment at P28 and at P35 mice will be euthanized and plasma, vitreous and retina samples will be sent to AITB for determination of NAC and NACA levels. Experimental groups: (n=10/group). The research was performed in 3 discrete experiments: […]

[2] = humans, oral dose of 600 mg; cited from earlier work
diabetic rats = conditions: cited from earlier work
[3] = target: T1, glutamate cysteine ligase (GCL, EC 6.3.2.2) (Homo sapiens, UniProt P48506); conditions: substrate of GCL; read-out: apparent Km; cited from earlier work
T1 sequence (P48506 1-637): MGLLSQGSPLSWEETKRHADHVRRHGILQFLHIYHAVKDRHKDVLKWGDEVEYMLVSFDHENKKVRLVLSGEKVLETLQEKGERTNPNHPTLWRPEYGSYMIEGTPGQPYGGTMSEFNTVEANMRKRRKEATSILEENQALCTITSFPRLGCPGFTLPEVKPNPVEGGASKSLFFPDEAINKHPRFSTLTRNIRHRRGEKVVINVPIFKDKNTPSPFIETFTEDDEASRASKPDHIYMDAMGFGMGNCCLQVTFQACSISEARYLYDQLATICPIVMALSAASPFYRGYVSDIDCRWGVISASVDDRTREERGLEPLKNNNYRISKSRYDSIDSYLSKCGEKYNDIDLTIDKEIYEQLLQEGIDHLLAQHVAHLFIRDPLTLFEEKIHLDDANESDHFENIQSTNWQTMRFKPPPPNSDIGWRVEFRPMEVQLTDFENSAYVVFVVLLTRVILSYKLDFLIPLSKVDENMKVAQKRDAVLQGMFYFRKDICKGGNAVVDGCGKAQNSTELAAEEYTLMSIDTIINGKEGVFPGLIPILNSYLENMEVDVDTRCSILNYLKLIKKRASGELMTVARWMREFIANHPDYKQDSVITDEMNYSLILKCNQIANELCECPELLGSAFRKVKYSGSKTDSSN
T1 sequence (P48507 1-274 partner): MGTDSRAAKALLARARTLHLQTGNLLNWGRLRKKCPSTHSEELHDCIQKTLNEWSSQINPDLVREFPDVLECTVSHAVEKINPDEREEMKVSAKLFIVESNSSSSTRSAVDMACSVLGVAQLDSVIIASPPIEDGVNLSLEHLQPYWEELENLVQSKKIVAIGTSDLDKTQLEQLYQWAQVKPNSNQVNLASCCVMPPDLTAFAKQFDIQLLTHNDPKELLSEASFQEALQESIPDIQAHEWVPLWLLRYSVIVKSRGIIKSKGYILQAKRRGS

[4] = 20 mg/ml NACA in drinking water

Compound | mean levels in aqueous humor compared with plasma [1, 4] | mean levels in plasma, rd10 compared with wild type [1, 4] | concentration at 7 days ([1]; C57/BL6 (wild type), wild type mice) [ng/g] | mean concentration in the aqueous humor, rd10 compared with wild type ([1]; N=8 eyes rd10, N=10 C57/B16) | mean levels in the retina compared with plasma [1] | measurability in the retina [1] | mean NACA levels in plasma compared with NAC levels ([1]; both strains, 20 mg/ml NACA in drinking water, N=10 per strain) | measurements in aqueous, vitreous and retina [1] | ratio of NACA:NAC in the retina, rd10 compared with C57/B16 ([1]; oral NACA 20 mg/mL in drinking water) | concentration at 7 days ([1]; rd10/rd10 (B6.CXB1-Pde6brd10/J), rd10 mice) [ng/g] | time after administration at which no NAC is detectable [2] [h] | expression of VEGF and ICAM-1 (diabetic rats; after 5-month treatment) | up-regulation of VEGF and ICAM-1 expression in retinal blood vessels (diabetic rats) | reactive oxygen species contents in the retinas (diabetic rats; most significantly at 5 months) | retinal pathological changes (electron and light microscopy) (diabetic rats; sacrificed at 3 and 5 months) | Km [3] [µM]
CC(=O)N[C@@H](CS)C(N)=O | lower than in plasma | greater in rd10 mice than in the wild type | ~2400 | higher in rd10 mice than wild type | higher than those observed in plasma | measurable in all animals | greater than the NAC levels | BLQ | penetrated retina to a greater extent in rd10 mice than in C57/B16 mice; also recorded: greater in the retina of rd10 mice than in C57/B16 mice | ~6500 |  |  |  |  |  | 
CC(=O)N[C@@H](CS)C(=O)O [NAC, N-acetyl-L-cysteine, reference compound] | lower than in plasma | greater in rd10 mice than in the wild type |  |  | higher than those observed in plasma | measurable in all animals |  | BLQ |  |  | 10 to 12 | returned to basal levels | attenuated | decreased reactive oxygen species | alleviated the pathological changes | 
N[C@@H](CS)C(=O)O [cysteine, L-cysteine] |  |  |  |  |  |  |  |  |  |  |  |  |  |  |  | 100 to 300
